Measurements published in patent publication US8815813B2, “Methods for treating immune-mediated Dengue Fever infections and antibody-dependent enhancement of Dengue Fever infections, including Dengue Hemorrhagic Fever and Dengue Shock Syndrome” (priority 2008, dated 2014).
Read-outs that look alike come from different tables or passages of the source. No end group written: not given here.

Tests used:
FcγIIb = assay type: binding
FcγIIIa = assay type: binding
human C1q = assay: Reverse ELISA: inhibition of PAP immune complex binding to C1q coated plates
Fcγ1 = assay type: binding
FcγIIa (H131 allele) = assay type: binding
FcγIIb/c = assay type: binding
FcγIIIb (NA2) = assay type: binding
recombinant human FcγIIa = assay type: binding
Procedure: The results of 1:250 and 1:500 serial dilutions (ADE was most evident at serum dilutions of 1:250 to 1:500) of the DENV-IgG-IC were tested against inhibition of DENV-IgG-IC binding to huFcγRIIa coated microtiter wells. Results using huFcγRIIa coated wells with either a 1:250 dilution of DENV-IgG-IC with no inhibitor, a 1:250 dilution of DENV-IgG-IC with SEQ ID NO:20, a 1:500 dilution of DENV-IgG-IC with no inhibitor, and a 1:500 dilution of DENV-IgG-IC with SEQ ID NO:20 are shown in Table 5.

[1] = system: Dengue Virus recombinant NS1; assay type: binding; conditions: summary of Table 6
Procedure: PAP IC were incubated with either no peptide or with SEQ ID NO:20 for one hour.

recombinant TNF-α = assay type: binding
FcγIIa (R131 allele) = assay: Reverse ELISA: inhibition of PAP-IC binding to FcγIIa (R131 allele) coated plates; conditions: PAP pre-incubated with peptide 1 h; positive control 1.599

Chain of FcγIIIb (NA2) (O75015 17-200): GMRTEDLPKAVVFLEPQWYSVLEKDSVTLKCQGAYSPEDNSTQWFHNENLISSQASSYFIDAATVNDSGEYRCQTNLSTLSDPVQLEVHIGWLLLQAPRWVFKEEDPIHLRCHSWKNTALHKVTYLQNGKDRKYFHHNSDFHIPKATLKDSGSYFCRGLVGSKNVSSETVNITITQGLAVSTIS

Substance	OD405 FcγIIb (FcγIIb)	OD405 FcγIIIa (FcγIIIa)	inhibition of C1q binding (ranking in words) (human C1q)	other results
APPCAFHLGELVWCT (cysteine pairing not given here) [SEQ ID NO:18]	0.380	0.880		
APPCARHLGELVWCT (cysteine pairing not given here) [SEQ ID NO:16]	0.768	0.709	next best result	
APPCAWHLGELVWCT (cysteine pairing not given here) [SEQ ID NO:14]	0.562	0.530		
Ala-Pro-Pro-Asp-Cys-Ala-Trp-His-Leu-Gly-Glu-Leu-Val-Trp-Cys-Thr [SEQ ID NO:20]	0.496	0.670	greatest inhibition of C1q binding	% inhibition of IC binding, Fcγ1 (Fcγ1): 89%; Fcγ1 (read at 405 nm) (Fcγ1): 0.264; FcγIIa* (H131 allele) (read at 405 nm) (FcγIIa (H131 allele)): 0.209; FcγIIb/c (read at 405 nm) (FcγIIb/c): 0.266; % inhibition of IC binding, FcγIIIb (NA2) (FcγIIIb (NA2)): 91%; FcγIIIb (NA2) (read at 405 nm) (FcγIIIb (NA2)): 0.266; DENV-IgG-IC binding to huFcγRIIa coated wells (ELISA reading) (recombinant human FcγIIa; 1:250 dilution of DENV2 (16681)-DENV convalescent IgG-IC, no peptide control 2.885): 0.265; DENV-IgG-IC binding to huFcγRIIa coated wells (ELISA reading) (recombinant human FcγIIa; 1:500 dilution of DENV2 (16681)-DENV convalescent IgG-IC, no peptide control 2.362): 0.289; inhibition of DENV2-anti-DENV convalescent IgG-IC binding to FcγIIa coated plates (in words) (recombinant human FcγIIa; summary of Table 5): marked ability to inhibit binding; inhibition of PAP-IC binding to recombinant DENV NS1 coated plates (in words) [1]: marked ability to inhibit the binding; OD405 (recombinant TNF-α): 0.086; inhibition of PAP-IC binding to recombinant TNFα coated plates (in words) (recombinant TNF-α): marked ability to inhibit the binding
Asp-Cys-Ala-Phe-His-Leu-Gly-Glu-Leu-Val-Trp-Cys-Thr [SEQ ID NO:3]	0.510	0.810		
Asp-Cys-Ala-Trp-His-Leu-Gly-Glu-Leu-Val-Trp-Cys-Thr [SEQ ID NO:2]	0.532	0.741		OD405 FcγIIa (R131 allele) (FcγIIa (R131 allele)): 0.561
